Entries after “also recorded” stand apart in the source; their conditions may differ.
Columns and labels:
[1] = tested on: CD44s, CD44v10, S1P1 and S1P3 receptors in lipid rafts; assay: CD44 isoform / S1P receptor recruitment and association in lipid raft (CEM) fractions; assay type: cell-based, human; settings: for CD44 isoform association with S1P receptors in lipid rafts: 100 nM HA, immunoprecipitation from lipid raft fractions
Experimental: Lipid Raft Isolation—Caveolin-enriched microdomain known as lipid rafts were isolated from human lung EC as described (Singleton and Bourguignon, 2004; Singleton et al., 2005). Materials insoluble in Triton X-100-insoluble were mixed with 0.6 ml of cold 60% Optiprep™ and then overlaid with 0.6 ml of 40%-20% Optiprep™. The resulting gradients were then centrifuged (35,000 rpm) in SW60 rotor for 12 h at 4° C. and different fractions were collected and analyzed. In some cases, different fractions were analyzed for total cholesterol content using a cholesterol assay kit (Amplex Red™, Invitrogen (Molecular Probes), Eugene, Oreg.).
Immunoprecipitation and Immunoblotting—Cellular materials associated within the 20% Optiprep™ fractions (lipid raft fraction) were incubated with IP buffer A (50 mM HEPES (pH 7.5), 150 mM NaCl, 20 mM MgCl2, 1% Nonidet P-40 (NP-40), 0.4 mM Na3VO4, 40 mM NaF, 50 μM okadaic acid, 0.2 mM phenylmethylsulfonyl fluoride, 1:250 dilution of Calbiochem protease inhibitor mixture 3) or IP buffer B (50 mM HEPES (pH 7.5), 150 mM NaCl, 20 mM MgCl2, 1% Triton X-100, 0.1% SDS, 0.4 mM Na3VO4, 40 mM NaF, 50 μM okadaic acid, 0.2 mM phenylmethylsulfonyl fluoride, 1:250 dilution of Calbiochem protease inhibitor mixture 3) as indicated. The samples were then immunoprecipitated with anti-S1P1 receptor or anti-S1P3 receptor IgG followed by SDS-PAGE in 4-15% polyacrylamide gels, and transfer onto Immobilon™ membranes. Development occurred using specific primary and secondary antibodies. Enhanced chemiluminescence (Amersham Biosciences) for visualization of immunoreactive bands then took place.
Determination of Complex Formation between S1P1 Receptor/CD44s and S1P3 Receptor/CD44v10—EC monolayers were serum-starved for one hour, then treated with High or Low MW HA (100 nM) (5-30 min.) and solubilized in IP buffer A (see above). Following immunoprecipitation with either rabbit anti-S1P1 receptor or mouse anti-S1P3 receptor antibody, the samples were subjected to SDS-PAGE in 4-15% polyacrylamide gels and transfer onto Immobilon™ membranes (Millipore Corp., Bedford, Mass.). Nonspecific sites were then blocked with 5% bovine serum albumin, and the blots were then incubated with either rat anti-CD44 (IM-7, common domain) antibody, rabbit anti-S1P1 antibody or mouse anti-S1P3 antibody followed by incubation with horseradish peroxidase (HRP)-labeled goat anti-rabbit, goat anti-mouse or goat anti-rat IgG. Enhanced chemiluminescence (Amersham Biosciences) for visualization of immunoreactive bands then took place.

MARCKS and NHE1 = assay: LPS-induced phosphorylation of MARCKS and NHE1 (immunoprecipitation/immunoblot); assay type: cell-based, human; settings: LPS 1 μg/ml, 4 hours, HMW-HA 100 nM or Y-27632 500 nM
purified HABP2 = target: T1, purified HABP2 (Homo sapiens, UniProt Q14520); assay: HABP2 protease assay (QuantiCleave, succinylated casein); assay type: biochemical; settings: purified HABP2, various concentrations of HA
T1 construct: host or cells: human pulmonary endothelial cells (EC); secreted into the medium, immunoprecipitated with anti-HABP2 antibody
T1 sequence (Q14520 24-560): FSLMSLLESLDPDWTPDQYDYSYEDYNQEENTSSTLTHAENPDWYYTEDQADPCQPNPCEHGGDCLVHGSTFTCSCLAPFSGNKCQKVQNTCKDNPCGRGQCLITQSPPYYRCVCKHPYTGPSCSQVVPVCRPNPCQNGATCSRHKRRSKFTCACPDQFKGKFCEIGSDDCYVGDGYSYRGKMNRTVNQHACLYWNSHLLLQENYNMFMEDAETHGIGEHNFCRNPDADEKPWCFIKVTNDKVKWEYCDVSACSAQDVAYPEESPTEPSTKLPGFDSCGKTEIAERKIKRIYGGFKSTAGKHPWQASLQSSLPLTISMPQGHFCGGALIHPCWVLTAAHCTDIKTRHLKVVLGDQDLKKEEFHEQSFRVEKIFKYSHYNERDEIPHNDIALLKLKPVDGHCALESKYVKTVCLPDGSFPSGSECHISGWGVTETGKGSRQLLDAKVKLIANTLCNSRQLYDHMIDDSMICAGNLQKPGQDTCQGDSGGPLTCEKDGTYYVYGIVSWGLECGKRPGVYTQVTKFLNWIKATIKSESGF
Experimental: HABP2 protease assay. Protease activity is measured using the QuantiCleave™ Protease Assay Kit (Pierce). Briefly, the immunobeads are incubated with succinylated casein for one hour followed by development with TNBSA (2,4,6-trinitrobenzene sulfonic acid) and read at 450 nm.
HABP2 protein purification and protease activity determination. Media from HABP2 overexpression vector-transfected EC (Origene) was immunoprecipitated with anti-HABP2 antibody-conjugated Sepharose beads (Sigma). The immunobeads were then extensively washed in 50 mM Borate, pH=8.5 and eluted with 1M NaCl with 0.1% NP-40 and dialyzed against a 1,000 fold excess of 50 mM Borate, pH=8.5. Protein assays were performed to quantitate total protein. The purified protein was run on SDS-PAGE and either immunoblotted with anti-HABP2 antibody (Novus Biologicals) or stained with Imperial™ protein stain (Pierce) to check for purity. Protease activity was measured using the QuantiCleave™ Protease Assay Kit (Pierce). Briefly, the immunobeads were incubated with succinylated casein for one hour followed by development with TNBSA (2,4,6-trinitrobenzene sulfonic acid) and read at 450 nm.
Determination of the role of HMW-HA/HABP2/C1INH interactions in regulating angiogenesis in vitro. Human pulmonary EC (Cambrex), grown in EBM-2 complete medium (Cambrex) at 37° C. in a humidified atmosphere of 5% CO2, 95% air, with passages 6-10 used for experimentation will be treated with or without 100 nM HMW-HA and/or 100 nM VEGF in the presence or absence of HABP2 and/or C1INH overexpression vectors (Origene), exogenous purified recombinant HABP2 polyanion binding domain and/or C1INH (Novus Biologicals) and/or siRNA (scramble, HABP2 or C1INH). For HABP2 protease activity determination, media from HABP2 overexpressing EC (see above) was immunoprecipitated with anti-HABP2 antibody-conjugated Sepharose beads (Sigma). The immunobeads were then extensively washed in 50 mM Borate, pH=8.5 and protease activity was measured using the QuantiCleave™ Protease Assay Kit (Pierce). Briefly, the immunobeads were incubated with succinylated casein for one hour followed by development with TNBSA (2,4,6-trinitrobenzene sulfonic acid) and read at 450 nm.

[2] = tested on: Human pulmonary artery EC; assay: Cortical actin (phalloidin) staining and quantitation; assay type: cell-based; settings: for cortical actin ring formation (F-actin localization): early, timepoint 5 min
Experimental: Immunofluorescence Microscopy and Cortical Actin Quantitation—Polymerized actin rearrangement was assessed first with Texas Red-conjugated phalloidin (Invitrogen (Molecular Probes), Eugene, Oreg.) and then analyzed using a Nikon Eclipse TE 300 microscope as described (Garcia et al., 2001). ImageQuant™ software (Amersham Biosciences Corp. (Piscataway, N.J.)) was used to analyze the computer recorded .tiff images. A standardized average grey value (SAGV) was generated for total phalloidin staining versus cortical phalloidin staining for each cell (Singleton et al., 2005). The following equation was used to calculate percent cortical actin staining: ((cortical actin SAGV×area) divided by (total actin SAGV×area))×100. At least ten cells per sample were analyzed. Experiments were performed in triplicate.
Immunofluorescence Microscopy. EC were serum-starved for one hour prior to the addition of 100 nM high MW HA. EC were then fixed in 4% paraformaldehyde, permeablized with ethanol and incubated with specific protein or interest primary antibody for 30 min followed by either FITC or Texas Red-conjugated secondary (Invitrogen (Molecular Probes), Eugene, Oreg.) and analyzed using a Nikon Eclipse TE 300 microscope as described (Garcia et. al., 2001).

Row | Substance | recruitment of CD44s to the lipid raft fraction ([1]; 100 nM HA, 5, 15 or 30 min) | CD44 isoform association with S1P receptors in lipid rafts [1] | LPS-induced phosphorylation of MARCKS and NHE1 (MARCKS and NHE1) | HABP2 protease activity (purified HABP2) | HABP2 protease activity (purified HABP2; listed as High molecular weight hyaluronan) | HABP2 protease activity (purified HABP2; listed as high MW hyaluronan) | cortical actin ring formation (F-actin localization) [2] | recruitment of CD44v10 to the lipid raft fraction ([1]; 100 nM HA, 5, 15 or 30 min) | HABP2 protease activity (purified HABP2; listed as low MW hyaluronan) | cortical actin staining / F-actin stress fiber formation ([2]; challenge for 30 min)
1 | hyaluronan [HMW-HA] | rapidly (5 min.) recruit CD44s to the lipid raft fraction | induced CD44s association in lipid rafts with S1P1 | inhibit LPS-induced phosphorylation of MARCKS and NHE1 | inhibits | directly binds and inhibits the enzymatic activity of HABP2 | reduced its activity | induced prominent cortical actin ring formation early on | – | – | –
2 | hyaluronan [LMW-HA, reference compound] | rapidly (5 min.) recruit CD44s to the lipid raft fraction | induced an initial CD44s association with S1P1 which was followed by CD44v10 association with S1P3 receptor in lipid raft fractions | – | activates; also recorded: enhances | – | – | induced prominent cortical actin ring formation early on | robust but delayed recruitment of CD44v10 (after 15 min.) | increased the protease activity of purified HABP2 in a dose-dependent manner | loss of cortical actin staining with increased F-actin stress fiber formation

— patent US20100249064A1, “METHODS AND COMPOSITIONS FOR TREATING DISEASES AND CONDITIONS INVOLVING HIGHER MOLECULAR WEIGHT HYALURONAN” (University of Chicago, priority 2007, published 2010)
